One data set has as its system RBP4-TTR interaction. The note with it: cited from earlier work.
The conditions of data set [1]: cited from earlier work.
A further data set concerns the target RBP4 (Homo sapiens, UniProt P02753). Particulars: cited from earlier work.
The next data set relates to serum RBP4 and retinol. The note with it: in vivo; cited from earlier work.
The subject of another data set is Abca4−/− mice. Particulars: animal model of excessive bisretinoid accumulation; cited from earlier work.
Data set [2] has as its system retinal pigment epithelium cells. Particulars: many cell types, including the retinal pigment epithelium cells; cited from earlier work.

Broadly, the melting point is the temperature of the solid-liquid transition. Regarding `CC1(C(=O)N2CCC(c3ccccc3C(F)(F)F)CC2)COC1` [Example 103, (3-Methyloxetan-3-yl)(4-(2-(trifluoromethyl)phenyl)piperidin-1-yl)methanone], the melting point is 100 to 102 °C.
As for `CC1=C(/C=C/C(C)=C/C=C/C(C)=C/C(=O)Nc2ccc(O)cc2)C(C)(C)CCC1` [fenretinide, N-(4-hydroxy-phenyl)retinamide], the “disruption of RBP4-TTR interaction” value with RBP4-TTR interaction is given as “disrupt the RBP4-TTR interaction”. In addition, the formation of hemangiosarcomas result in data set [1] (mice) is “stimulate formation of hemangiosarcomas”. For the same compound, in data set [1] (mouse, in vivo), the selectivity and toxicity entry is “non-selective and toxic”; the teratogenicity result was “teratogenic”. For the same compound, at RBP4, the “binding to RBP4” value is “bind to RBP4” and the “displacement of all-trans retinol from RBP4” value is listed as “displace all-trans retinol from RBP4”. In addition, in the data set on serum RBP4 and retinol, the “ocular all-trans retinol uptake” value is given as “inhibit ocular all-trans retinol uptake”; the “serum RBP4 and retinol” value is “reduce serum RBP4 and retinol”; the visual cycle entry was “slow down the visual cycle”. The A2E production entry in the data set with Abca4−/− mice is listed as “reduced A2E production”. Moreover, in data set [2], the induction of apoptosis entry was “extremely active inducer of apoptosis”.

Source of the values: patent publication US10273243B2, “4-phenylpiperidines, their preparation and use” (The Trustees of Columbia University in the City of New York, priority 2013, dated 2019).
